From patent US20260272895A1, “METHODS AND KITS FOR DELIVERY OF COMPOUNDS INTO CELLS” (Yale University, priority 2023, published 2026) come the findings set out here.

Experiment [1] has as its system retinal endothelial cells. Nature of the experiment: Retinal endothelial labeling after intravitreal / intraocular injection. It is filed as in vivo, mouse. Conditions: intravitreal/intraocular injection (eEDiTS 50 μM in FIG. 14D).
In experiment [2] the test system is cancer cells in freshly excised breast surgical tissue. Nature of the experiment: Injection into freshly excised cancerous breast tissue. The text has this: Injection of compound 1 into freshly excised cancerous breast tissue leads to rapid entry into cancer cells (red). Blue represents nuclear labeling with Hoechst dye.
Experiment [3] has as its target T1, Slco1a4 (Mus musculus, UniProt Q9EP96).
T1 sequence (Q9EP96 1-670): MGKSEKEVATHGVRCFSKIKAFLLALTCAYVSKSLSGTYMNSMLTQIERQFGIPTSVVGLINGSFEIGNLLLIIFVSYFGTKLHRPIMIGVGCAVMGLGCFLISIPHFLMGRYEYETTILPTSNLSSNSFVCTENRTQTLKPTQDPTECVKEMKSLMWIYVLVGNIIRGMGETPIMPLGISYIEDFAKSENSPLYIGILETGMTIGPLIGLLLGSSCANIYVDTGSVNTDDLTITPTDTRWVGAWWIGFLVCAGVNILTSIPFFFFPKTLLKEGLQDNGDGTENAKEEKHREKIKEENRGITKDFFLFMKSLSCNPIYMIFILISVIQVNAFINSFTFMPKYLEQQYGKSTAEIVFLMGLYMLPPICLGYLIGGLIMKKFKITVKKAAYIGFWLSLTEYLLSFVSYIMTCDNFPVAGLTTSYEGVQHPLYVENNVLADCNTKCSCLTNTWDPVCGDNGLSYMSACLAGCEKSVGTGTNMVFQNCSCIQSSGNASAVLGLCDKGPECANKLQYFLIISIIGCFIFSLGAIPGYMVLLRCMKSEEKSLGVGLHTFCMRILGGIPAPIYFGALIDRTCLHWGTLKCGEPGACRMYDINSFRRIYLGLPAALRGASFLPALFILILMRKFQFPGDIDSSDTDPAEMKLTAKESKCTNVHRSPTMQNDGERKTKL
Nature of the experiment: In vivo two-photon imaging in Slco1a4 knockout mice (Oatp1a/1b cluster knockout). Set-up: FLAG; expressed in transfected cells; host or cells: cortical neurons of live mice, in utero electroporation at E14/E15. Here is the method:
Briefly, animals are anaesthetized via intraperitoneal injections of ketamine/xylazine or via inhaled isoflurane. A region of the skull (3×3 mm) is gently removed with a high-speed drill and the underlying dura is removed. A small glass coverslip is placed over the skull to allow long term optical access for in vivo imaging. Labeling with fluorescent dyes is performed either via intravenous injections or topically application to the cortical surface for 20 min prior to glass cover placement. After recovery, in vivo images are acquired using a two-photon microscope (Bruker Technologies) equipped with a multimodal (fixed wavelength 1040 nm and tunable wavelength) InSight X3 two-photon laser (Spectra Physics) and 20× water immersion objective (Zeiss 1.0N.A.). The two-photon laser is appropriately tuned to excite particular fluorescent dyes and proteins as needed. In selected cases, following in vivo imaging, mice will be sacrificed and perfused for follow up immunohistochemistry and high-resolution confocal imaging (Leica SP8) to further confirm colocalization of dyes and cells expressing particular transporters.
One-month-old wild-type mice were anesthetized using a ketamine/xylazine solution at doses of 100 mg/kg and 10 mg/kg, respectively. The fur around the skull area was shaved, and buprenex (0.1 mg per kg) and carprofen (5 mg per kg) were administered subcutaneously. Mice were kept on a heating pad at 37° C., and anesthesia was periodically monitored. The skin was treated with povidone-iodine solution, followed by cleaning with ethanol, and eye ointment was applied. A small skin section was excised to expose the skull. Thinning of the skull was performed in a circular area, followed by delicately lifting of the remaining skull without harm to the underlying brain. Within the circular region, the dura was gently removed using fine forceps, and a 4 mm cover glass was softly pressed onto the brain surface and affixed to the skull. […]

The target in experiment [4] is T1, Slco1a4. Description: Uptake by cells ectopically expressing Slco1a4 (in utero electroporation) in live mice. Format: in vivo. On the set-up: FLAG; expressed in transfected cells; host or cells: cortical neurons of live mice, in utero electroporation at E14/E15. Conditions: topical cortical administration (50 μM where stated). The protocol:
IUE is performed at E14 or E15 as previously done. Briefly, timed pregnant mice are anaesthetized with ketamine/xylazine. The abdominal region is shaved, sterilized and a 3 cm midline incision is made in the skin and abdominal muscle. The uterine horns are exposed, and the lateral ventricle of each embryo is pressure injected (Picospritzer II, General Valve) with plasmid DNA (~[…] volume per embryo) at a concentration of […] followed by electroporation with tweezertrodes (50 V, 4-50 ms pulses with I s pulse interval. BTX Harvard Apparatus). The embryos are placed back in the mother womb, and the muscle and skin are sutured. Electroporated pups are aged to postnatal day 30. Imaging is performed through a craniotomy over the transfected hemisphere following dye labeling.
Briefly, animals are anaesthetized via intraperitoneal injections of ketamine/xylazine or via inhaled isoflurane. A region of the skull (3×3 mm) is gently removed with a high-speed drill and the underlying dura is removed. A small glass coverslip is placed over the skull to allow long term optical access for in vivo imaging. […]
One-month-old wild-type mice were anesthetized using a ketamine/xylazine solution at doses of 100 mg/kg and 10 mg/kg, respectively. […] Mice were kept on a heating pad at 37° C., and anesthesia was periodically monitored. […]

The test system of experiment [5] is NIH3T3 cells. Nature of the experiment: Assessment of pharmacological effects in vitro in NIH3T3 cells (tubulin staining, multinucleated cells). It is filed as cell-based.
Excerpt: Confocal microscopy of the different treatment groups allowed us to visualize Hoechst dye-labeled nuclei to quantify the proportion of cells with multinucleated phenotype which is known to occur with Colchicine treatments.
Experiment [6] has as its system brain cell types. Nature of the experiment: In vivo two-photon imaging of mouse cortex after topical cortical administration of fluorophores. The following applies: topical cortical administration 50 μM, Tie2-GFP endothelial reporter mice.

For the molecule `O=S(=O)([O-])c1cc(S(=O)(=O)O)ccc1C1=c2cc3c4c(c2Oc2cc(Br)ccc21)CCC[N+]=4CCC3` [Compound 1, 2-(12-bromo-1,2,3,5,6,7-hexahydrochromeno[2,3-f]pyrido[3,2,1-ij]quinolin-4-ium-9-yl)-5-sulfobenzenesulfonate], the retinal endothelial labeling result in experiment [1] is “rapid and highly specific labeling of retinal vasculature”. Besides, the “entry into breast cancer cells” value in experiment [2] is listed as “readily enters cancer cells”. For the same molecule, the “astrocyte uptake in knockout mice” value in experiment [3] (Oatp1a/1b cluster knockout) is given as “Astrocyte uptake is seen in the knockout mice”. Also, in experiment [3] (application to cortical surface, concentration not given), the “endothelial uptake in Slco1a4 knockout mice” value was “complete disappearance of endothelial uptake”. For the same molecule, the “uptake by neurons ectopically expressing Slco1a4” value in experiment [4] is “only those cells that express SLCO1A2 or SLCO1A4 (as evidenced by the GFP fluorescence (green)) take up compound 1”.
Regarding `COc1cc2c(c(OC)c1OC)-c1ccc(OC)c(=O)cc1C(NS(=O)(=O)c1ccc(-c3c4ccc(N(C)C)cc4[o+]c4cc(N(C)C)ccc34)c(S(=O)(=O)[O-])c1)CC2` (centres unmarked) [Compound 47, 2-(3,6-bis(dimethylamino)xanthylium-9-yl)-5-(N-(1,2,3,10-tetramethoxy-9-oxo-5,6,7,9-tetrahydrobenzo[a]heptalen-7-yl)sulfamoyl)benzenesulfonate], in experiment [5] (NIH3T3 cells), the “preservation of pharmacological properties after conjugation” value is listed as “retains its pharmacological properties”. Besides, the “cell morphology / multinucleated cells” value in experiment [5] (NIH3T3 cells (FIG. 17A)) was “changes in cell morphology and presence of multinucleated cells”. Besides, in experiment [5] (NIH3T3 cells, 12 hours, varying concentrations (FIG. 17A)), the “pattern of α-tubulin immunofluorescence” value is on record as “diffuse labeling pattern”. In addition, the “colocalization with GFP labeling” value in experiment [6] is “precise colocalization between Colchicine-eEDiTS and GFP labeling”. Moreover, the “endothelial uptake in Slco1a4 knockout mice” value in experiment [3] (topical cortical administration 50 μM, compared to wildtype) is recorded as “complete elimination of Colchicine-eEDiTS uptake”. Also, the “uptake by neurons ectopically expressing Slco1a4” value in experiment [4] is “marked uptake”.
